The text below walks through data of patent publication US20220218806A1, “PEPTIDES AND CONJUGATES FOR TREATMENT OF ARTHRITIS” (CRL-SCI Corporation, priority 2019, published 2022).

Entries after “also recorded” stand apart in the source; their conditions may differ. Like-named read-outs stand apart in the source and are kept apart here. Square brackets hold non-standard residues; d marks the D form. Ends that are not written are not given here. Cit = NC(=O)NCCC[C@H](N)C(=O)O

For test [1] the following is noted: in mice; cited from earlier work.
For the next test, the system named is spleen cells. As to the kind of experiment: Cytokines secreted by rhG1-stimulated spleen cell cultures (MagPix). In kind it is cell-based, BALB/c mice. Conditions: 7.5 μg/ml rhG1 4 days, stimulated less non-stimulated. Here is the method:
(§1) Animals were euthanized on day 35 after the first control or LEAPS vaccination, and sera was collected. For histopathology, hind limbs (from 5 mice/treatment groups plus 3 normal mice limbs) were dissected and fixed in 10% buffered formalin. The specimens were embedded in paraffin and sectioned. Adjacent tissue sections were stained separately with TB and HE. Microscopic analysis and scoring of joint damage were carried out independently under code by Bolder BioPath. Serum anti-LEAPS peptide antibody levels were determined by ELISA using Neutavidin plates and Biotin labeled peptides for loading onto plates. To determine cytokine production by spleen cell cultures, after a 4-day stimulation of spleen cells with 7.5 μg/ml rhG1 (or no treatment as control), cytokines secreted into the culture media were assayed by MagPix as 9-plex or 6-plex kits from R&D Systems. For intracellular cytokines and FoxP3 detection, spleen cells from 5 mice from each group were cultured with rhG1 for 4 days. The cells were treated with PMA, ionomycin, and GolgiStop for 4 hours, stained for cell surface markers and intracellular cytokines or Foxp3. Samples were run on a FACS Canto flow cytometer and the results analyzed by FACS Diva software. Statistical analysis of data was done using GraphPad Prism 7 software package. Nonparametric and multiple comparison test were conducted as described. […]

The next test concerns CD4+ spleen T cells. As to the kind of experiment: Intracellular cytokines and FoxP3 in spleen T cells by flow cytometry. Type of test: cell-based, BALB/c mice. Here is the method: as §1
(A flow cytometer gives signals particle by particle.)

Test [2] concerns GIA model of RA. As to the kind of experiment: Histopathology of hind limbs (ankles, hind paws) of diseased mice after vaccination. Type of test: in vivo, BALB/c mice.
In test [3] the test system is beDerG-PG70, bePG275cit, beOVA-OR8, beDerG-PG275cit, bePG70, beDerG-GGG. As to the kind of experiment: Serum anti-LEAPS peptide antibody ELISA (biotinylated peptides on NeutrAvidin plates). In kind it is in vivo, BALB/c mice. Conditions: sera of vaccinated mice, day 35. (In an ELISA, binding on a coated surface is turned into a signal by an enzyme label.)
The subject of test [4] is GIA model of RA. As to the kind of experiment: Visual arthritis score (VAS) after therapeutic LEAPS vaccination in rhG1-induced arthritis. In kind it is in vivo, BALB/c mice. Conditions: overall conclusion.
The conditions of test [5]: in humans; cited from earlier work.
[6] abbreviates: ankles, 40x magnification, day 35.
Where [7] appears, read: hind paws, digit joints, 16x magnification.

For the substance “ATEGRVRVNSAYQDK-amide (ATEGRVRVNSAYQDK-NH2) [PG70, proteoglycan aggrecan (G1) residues 70-84]”, the Immunogenicity of epitope result in test [1] is listed as “more immunogenic than PG70Cit”.

Turning to “DGQEEKAGVVSTGLIGGGMDMCSAGWLADCitSVR-amide (DGQEEKAGVVSTGLIGGGMDMCSAGWLAD[Cit]SVR-NH2; not fully specified) [DerG-PG275Cit]”, in the test with spleen cells, the “Net secreted IFNγ” value is “induced” and the “Net secreted IL17A” value is “induced”. Moreover, the “Treg cell activation (FoxP3)” value in the test on CD4+ spleen T cells (CD4+ spleen T cells, rhG1 4 days) is “appeared to activate Treg cells”. Besides, in the test with GIA model of RA [2] (setting [6]), the “Cartilage damage, ankle histopathology” value is recorded as “mild”; the “Inflammation, ankle histopathology” value is reported as “moderate”; the “Joints affected, ankle histopathology” value is “the ankle and several digit joints”. Moreover, the “Joints affected, hind paw histopathology” value in the test on GIA model of RA [2] (hind paws, 16x magnification) is “several digit joints”. Besides, in the test on GIA model of RA [2] (setting [7]), the “Cartilage damage, hind paw histopathology” value is listed as “mild” and the “Inflammation, hind paw histopathology” value is on record as “moderate”. Besides, the “Serum antibodies to vaccine peptides (OD 450 nm)” value in test [3] is “does not induce antibodies to either DerG or PG275Cit or the conjugate; also recorded: induced antibodies against neither the DerG element nor the PG275Cit element”. Further, in the test with GIA model of RA [4], the “Therapeutic effect / protection in the GIA model of RA” value is “therapeutic in the GIA model of RA with high efficacy”.

With “GQEEKAGVVSTGLIGGGMDMCSAGWLADRSVR-NH2 [DerG-PG275]”, in the test on CD4+ spleen T cells (overall conclusion), the “Modulation of Th2, Treg, Th1 cells and cytokines” value is reported as “does not appear to up modulate Th2 or Treg or Th1 cells or cytokines”. Further, the “Therapeutic effect / protection in the GIA model of RA” value with GIA model of RA [4] was “can provide protection alone”.

Turning to “MDMCSAGWLADCitSVR-amide (MDMCSAGWLAD[Cit]SVR-NH2; not fully specified) [PG275Cit]”, the Immunogenicity of epitope entry in test [5] and in test [1] was “more immunogenic than PG275” in each case.
